One experiment concerns E. coli KC-14. Briefly: Effect on treatment of infectiousness of the genito-urinary tract. The experiment is classed as in vivo, ICR female mice. The conditions noted are these: Escherichia coli, KC14, 48 h; E. coli KC-14, 5.6×10^5 CFU/mouse into urinary bladder; oral; not more than 10^4 living bacteria/1 g of kidney regarded as effective. The procedure:
2. Test microorganism and inoculum size E. coli KC-14 (5.6×10^5 CFU/mouse) 3. Method:
A microorganism solution (0.1 ml) prepared in the same manner as described in Experiment 3 was introduced into urinary bladder through urinary tract of ICR female mice (5 weeks age, weighing 20 to 22 g, 5 mice in each group), and then urinary meatus was clasped with clip for 4 hours to infect the animals. After taking off the clip, the compound (B) of the present invention dissolved in sterilized distilled water or ofloxacin suspended in 0.5% aqueous sodium carboxymethyl cellulose solution was orally administered to mice. Two days after the infection, mice kidneys were taken out and weighed, to which PBS (Dulbecco's phosphate buffered saline) was added and the mixture was homogenized. The homogenate was then diluted with PBS and inoculated onto a plate of modified Drigalski Agar (BTB lactose agar "Nissui", made by Nissui Seiyaku K.K., Japan) and cultured at 37° C. for 18 hours. The number of the colonies of infectious bacteria grown on the plate was counted. The number of living bacteria per 1 g of kidney was calculated from the number of colonies and the kidney weight. The living bacteria number/1 g of kidney of not more than 10^4 was regarded as effective and an effective dose for 50% mice (ED50) was calculated by Weil method.

The test system of a further experiment is Escherichia coli KC-14. Briefly: Effect on treatment of general infectious disease. Type of experiment: in vivo, ddY male mice. The following applies: KC14, 168 h, E. coli KC-14, 1.2×10^4 CFU/mouse i.p., oral one hour after infection, survival after one week. As to the method: Escherichia coli KC-14 (1.2×10^4 CFU/mouse)
(§1) The test microorganisms were subjected to standing culture in Trypto-Soya Agar "Nissui" (made by Nissui Seiyaku K.K., Japan) at 37° C. for 16 to 18 hours. The culture was then diluted with PBS (Dulbecco's phosphate buffered saline) and mixed with an equivalent amount of 10% (w/v) Mucin (BACTO MUCIN BACTERIOLOGICAL, made by Difco Co.) to prepare a microorganism solution. The thus prepared microorganism solution (0.5 ml each) was intraperitoneally innoculated to ddY male mice (4 weeks age, weighing 20-22 g, 5 mice in each group), to infect the animals. One hour after the infection, the compound (B) of the present invention dissolved in sterilized distilled water or ofloxacin suspended in 0.5% (w/v) aqueous sodium carboxymethyl cellulose solution was orally adiministered to mice.
(§2) The mice were daily observed for one week, and from the survival number of mice after one week, the 50% effective dose (ED50) was calculated by Weil method.

For a further experiment, the system named is bacteria. The conditions noted are these: prior art, U.S. Pat. No. 4,382,892; cited from earlier work.
The test system of experiment [1] is methicillin resistant Staphylococcus aureus. Briefly: Minimum inhibitory concentration against clinically isolated methicillin resistant Staphylococcus aureus. The experiment is classed as cell-based. The procedure:
The compound (B) was dissolved in sterilized distilled water, and ofloxacin in 0.1N aqueous potassium hydroxide, to prepare a solution of 5000 μg/ml in concentration each. The above solutions were then diluted with sterilized distilled water to prepare a standard solution with a concentration of the test compound: 1000 μg/ml each. The test was carried out by a method approved by Japan Society of Chemotherapy (ibidem) to measure minimum inhibitory concentration (MIC) against 54 strains of clinically isolated methicillin resistant Staphylococcus aureus, from which there were calculated a range of MIC (MICrange) of the test compound against these resistant strains, a minimum concentration for inhibiting the growth of the strains by 50% (MIC50) and a minimum concentration for inhibiting the growth of the strains by 90% (MIC90).

Experiment [2] has as its system Staphylococcus aureus IID 803. Put plainly: Effect on treatment of general infectious disease. The experiment is classed as in vivo, ddY male mice. The conditions noted are these: IID803, 168 h, S. aureus IID 803, 1.0×10^6 CFU/mouse i.p., oral one hour after infection, survival after one week. The procedure: Staphylococcus aureus IID 803 (1.0×10^6 CFU/mouse)
as §1, §2

The ED50 is the dose at which the effect has come halfway, by size or by number of responders. The term MIC denotes the least concentration at which growth counts as inhibited. A higher MIC goes with a need for much substance. The term MIC50 denotes the lowest concentration that inhibits either 50% of growth or 50% of the strains tested, depending on the study. Broadly, the MIC90 is the lowest concentration that inhibits either 90% of growth or 90% of the strains tested, depending on the study.

In brackets after ≈: the same amount, converted by molar mass.

As for `CC1COc2c(N3CCN(C)CC3)c(F)cc3c(=O)c(C(=O)O)cn1c23` (racemic) [Ofloxacin, reference compound], the ED50 was 50 mg/kg with E. coli KC-14, 1.1 mg/kg in the experiment with Escherichia coli KC-14 and 11.5 mg/kg in experiment [2]. Besides, the “antibacterial activity (in words)” value in the experiment on bacteria is “excellent antibacterial activity”. In experiment [1] (54 strains of clinically isolated methicillin resistant Staphylococcus aureus), the MIC was in the range of 0.39 to 1.56 µg/mL (≈ 1.08 to 4.32 µM). Also, in experiment [1] (Staphylococcus aureus, minimum concentration for inhibiting the growth of the strains by 50%, 54 strains), the MIC50 stood at 0.39 µg/mL (≈ 1.08 µM). The compound further gave an MIC90 in experiment [1] (Staphylococcus aureus, minimum concentration for inhibiting the growth of the strains by 90%, 54 strains) of 1.56 µg/mL (≈ 4.32 µM).

The record behind these values is patent US4808584A, “Quinolinecarboxylic acid derivatives and antibacterial agent containing the same” (Kanebo, Ltd., priority 1987, dated 1989).
